Literature values in patent US20250313903A1, “NEOANTIGEN IMMUNOTHERAPY” (Gradalis, Inc., priority 2023, published 2025).
Where two headings read alike, the source gives them in different places.

What was measured:
[1] = tested on: unresectable, previously treated, late-stage melanoma; details: 3 mg/kg every 3 weeks, alone or with gp100
[2] = tested on: untreated unresectable/metastatic melanoma; details: combination vs. ipilimumab alone
[3] = tested on: unresectable or metastatic, untreated melanoma; details: for 24-months OS / 24-months PFS: PD-L1 ≥1%; for 1-year OS / PFS (1-year PFS in Table 3): in vivo
[4] = tested on: lymph-node positive or metastatic melanoma after complete resection; details: adjuvant
[5] = tested on: advanced renal cell cancer; details: in vivo
[6] = tested on: persistent/recurrent cervical cancer; details: in vivo
[7] = tested on: metastatic melanoma progressed after anti-CTLA-4 therapy; details: in vivo
[8] = tested on: small-cell lung cancer (SCLC)
MSI-H/dMMR tumors = details: in vivo
[9] = tested on: relapsed/refractory metastatic squamous cell cancer of head and neck; details: second-line
[10] = tested on: persistent/recurrent cervical cancer; details: in vivo; remark: listed apart in the source
metastatic melanoma = details: previously untreated, wild-type BRAF (CheckMate-067 and CheckMate-069)
[11] = tested on: advanced metastatic non-small cell lung cancer (NSCLC); details: one patient, EGFR exon 19 deletion; ongoing greater than 1 year
[12] = tested on: non-small cell lung cancer (NSCLC); details: progressed after platinum-doublet chemotherapy
[13] = tested on: locally advanced, metastatic squamous cell carcinoma
[14] = tested on: recurrent or metastatic cervical cancer after platinum-based chemotherapy; details: vs. investigator-choice chemotherapy
[15] = in vivo
[16] = tested on: newly diagnosed advanced high-grade ovarian cancer
[17] = tested on: previously treated, PD-L1 positive, advanced NSCLC; details: in vivo
[18] = tested on: untreated, non-squamous NSCLC without sensitizing mutations; details: pembrolizumab plus chemotherapy vs. chemotherapy
NSCLC = details: irrespective of PD-L1 status
[19] = tested on: refractory/relapse primary mediastinal large B-cell lymphoma; details: in vivo
[20] = tested on: MSI-H, dMMR or TMB-H solid tumors
[21] = tested on: recurrent or metastatic head and neck squamous cell cancer; details: first-line; monotherapy for CPS ≥1% or with chemotherapy
[22] = tested on: persistent/recurrent or metastatic cervical cancer with PD-L1 CPS ≥1; details: pembrolizumab vs. placebo + paclitaxel/platinum +/- bevacizumab
[23] = tested on: advanced non-colorectal dMMR tumors; details: in vivo
[24] = tested on: refractory classical Hodgkin's lymphoma; details: in vivo
[25] = tested on: unresectable/metastatic urothelial cancer, cisplatin-ineligible; details: 1st line, CPS ≥10
[26] = tested on: untreated, PD-L1 ≥50 advanced NSCLC; details: vs. chemotherapy
[27] = tested on: unresectable/metastatic urothelial cancer; 2nd line; details: for median OS: vs. chemotherapy
[28] = tested on: metastatic NSCLC, 2nd line post platinum-based chemotherapy; details: regardless of PD-L1 expression or histology
[29] = tested on: newly diagnosed stage III/IV ovarian cancer
[30] = tested on: extensive stage SCLC, 1st line setting; details: atezolizumab added to carboplatin and etoposide, vs. placebo
[31] = tested on: triple-negative breast cancer; details: PD-L1 (TPS) ≥1% cut-off
[32] = tested on: advanced/metastatic urothelial carcinoma, platinum-refractory
[33] = tested on: chemo-refractory, metastatic Merkel cell carcinoma
[34] = tested on: stage III-IV ovarian cancer
[35] = tested on: advanced renal cell carcinoma; details: Avelumab + Axitinib vs. sunitinib
[36] = tested on: advanced urothelial carcinoma, 2nd line setting; details: in vivo
[37] = tested on: Stage IIIb/IV newly diagnosed ovarian cancer; details: follow up at 74 months
[38] = tested on: primary advanced or recurrent dMMR or MSI-H endometrial cancer; details: dostarlimab-gxly vs. placebo + carboplatin-paclitaxel

Which “OS vs. gp100 alone (in words)” value [1] does the source give for “ipilimumab: FDA approved CTLA-4 inhibitor” here?
The value was “OS advantage”.

And the “median PFS” value [2]?
The value was 4.4 months.

And the “24-months OS” value [3]?
The value was 45%.

What about the “24-months PFS” value [3] of the same compound?
Its value is 13%.

And the “1-year OS” value [3]?
Its value is 58.2%.

What about the “PFS (1-year PFS in Table 3)” value [3] of the same compound?
Its value is 26.5%.

What about the “1-year OS” value ([3]; listed as Ipilimumab) of the same compound?
The value was “(vs. 58.2%;”.

And the “PFS (1-year PFS in Table 3)” value ([3]; listed as Ipilimumab)?
Its value is 26.5%; p < 0.001);.

And the “12-month RFS” value [4]?
Its value is 60.8%.

For `CO[C@H]1C[C@@H]2CC[C@@H](C)[C@@](O)(O2)C(=O)C(=O)N2CCCC[C@H]2C(=O)O[C@H]([C@H](C)C[C@@H]2CC[C@@H](OCCO)[C@H](OC)C2)CC(=O)[C@H](C)/C=C(\C)[C@@H](O)[C@@H](OC)C(=O)[C@H](C)C[C@H](C)/C=C/C=C/C=C/1C` [everolimus], which OS [5] is on record?
Its OS is 19.6 months.

What does the source list for “Nivolumab: fully humanized IgG4 antibody targeting PD-1”?
ORR [6]: ORR: 26.3%; median OS [6]: Median OS: 21.9 months; response rate [7]: 32%; 24-months OS rate ([8]; in vivo): 17.9%; median OS ([8]; in vivo): 4.7 months; response rate ([8]; progressed on platinum and at least one other line): 11.6%; ORR (MSI-H/dMMR tumors): 31%; OS [9]: 7.5 months; 6-months OS [10]: 6-months OS: 78%; 6-months PFS [10]: 6-months PFS: 16%;; median duration of SD [10]: SD: 5.7 months; 12-month RFS [4]: 70.5%; response rate (metastatic melanoma): 40%; OS [5]: 25.0 months; response (in words) [11]: durable partial response; ORR [12]: 19-20%; median OS [12]: 9.2-12.2 months; median PFS [12]: 2.3-3.5 months

Which ORR ([13]; Phase 1 expansion cohorts) does the source give for Cemiplimab here?
Its ORR is 50%.

And the response rates ([13]; Phase 2 metastatic-disease cohort)?
The response rates was 47.

What about the ORR [14] of the same compound?
Its ORR is “ORR: 16.4% vs. 6.3%”.

What about the “median OS” value [14] of the same compound?
The value was “Median OS: 12.0 months”.

And the “median PFS: HR” value [14]?
The value was 0.75, p < 0.001.

With bevacizumab: VEGF inhibitor as the compound, how does the “patients developing Grade 3/4 product related adverse events” value [15] read?
The value was “over 65%”.

What about the survival (ovarian cancer; BRCA-m and HRD pattern disease) of the same compound?
The survival was 62.6 months.

And the survival (ovarian cancer; patients with HRP tumors)?
The survival was 43.4 months.

For `CNCc1ccc(-c2[nH]c3cc(F)cc4c3c2CCNC4=O)cc1` [rucaparib], which PFS ([16]; BRCA-wt/LOH low patients) is on record?
Its PFS is 12.1 months.

What about the PFS ([16]; in vivo) of the same compound?
Its PFS is 20.2 months.

For `CC(=O)O[C@@]12CO[C@@H]1C[C@H](O)[C@@]1(C)C(=O)[C@H](O)C3=C(C)[C@@H](OC(=O)[C@H](O)[C@@H](NC(=O)OC(C)(C)C)c4ccccc4)C[C@@](O)([C@@H](OC(=O)c4ccccc4)[C@H]21)C3(C)C` [docetaxel], which OS [17] is on record?
The OS was 8.5 months.

Which “PFS HR” value [18] does the source give for “Pembrolizumab: fully humanized IgG4 antibody targeting PD-1” here?
The value was “(HR: 0.53; p = 0.0049)”.

And the “median PFS” value [18]?
The value was “Median PFS: 19.0 months”.

And the “median PFS” value ([18]; listed as pembrolizumab)?
Its value is 19 months.

What about the “response rate, PFS and OS vs. chemotherapy (in words)” value (NSCLC) of the same compound?
Its value is “consistent response rate, PFS and OS advantage”.

What about the complete response rate [19] of the same compound?
Its complete response rate is 13%.

What about the response rate [19] of the same compound?
Its response rate is 45%.

And the “ORR, responders/patients” value ([20]; 90 patients with advanced endometrial cancer)?
The value was 43/90.

And the “ORR, responders/patients” value ([20]; 98 patients with advanced cervical cancer)?
The value was 12/98.

What about the ORR ([20]; MSI-H or dMMR solid tumors) of the same compound?
The ORR was “studies: ORRs ~40%”.

What about the ORR ([20]; MSI-H or dMMR solid tumors, listed as pembrolizumab) of the same compound?
The ORR was roughly 40%.

What about the ORR ([20]; TMB-H patients (Keynote-158)) of the same compound?
Its ORR is 29%.

And the ORR ([20]; TMB-low patients (Keynote-158))?
Its ORR is 6%.

What about the OS [21] of the same compound?
Its OS is 12.3 months.

And the “median DOR” value [22]?
The value was 18 vs. 10.4 months.

And the “median PFS” value [22]?
The value was “Median PFS: 10.4 months”.

What about the “ORR across tumor types” value [23] of the same compound?
Its value is 34%.

What about the “complete response, patients” value [23] of the same compound?
The value was 10%.

What about the complete response [24] of the same compound?
The complete response was 22%.

And the “median duration of response” value [24]?
Its value is 11 months.

What about the response rate [24] of the same compound?
The response rate was 69%.

And the OS [17]?
The OS was 10.4 months.

And the “24-months OS” value [3]?
The value was 58%.

And the “24-months PFS” value [3]?
The value was 33%.

What about the ORR [25] of the same compound?
Its ORR is “ORR: 38%”.

What about the ORR ([25]; listed as pembrolizumab) of the same compound?
The ORR was 38%.

What about the “6-months OS” value [26] of the same compound?
The value was 80.2% vs. 72.4%;.

What about the ORR [26] of the same compound?
The ORR was “ORR: 44.8% vs. 27.8%”.

What about the “median PFS” value [26] of the same compound?
The value was “Median PFS: 10.3 months”.

And the “6-months OS” value ([26]; listed as pembrolizumab)?
The value was 80.2%.

And the ORR ([26]; listed as pembrolizumab)?
The ORR was 44.8%.

And the “median PFS” value ([26]; listed as pembrolizumab)?
The value was 10.3 months.

And the responding tumors (metastatic NSCLC; PD-L1 negative tumors)?
The responding tumors was 15%.

And the response rate (metastatic NSCLC; PD-L1 positivity)?
The response rate was 45%.

And the “OS benefit compared to chemotherapy” value ([27]; in vivo)?
Its value is 3 months.

What about the “median OS” value [27] of the same compound?
Its value is “Median OS: 10.3 months”.

What about the “median OS” value ([27]; listed as pembrolizumab) of the same compound?
The value was 10.3 months.

What does the source list for Atezolizumab: PD-L1 blocking antibody?
OS (in words) [28]: OS benefit; PFS HR vs. placebo arm ([29]; HRP subgroup): 0.82; PFS ([29]; PD-L1+ patients): 20.8 months; PFS HR vs. placebo arm ([29]; PD-L1+ patients): 0.80; median PFS ([29]; atezolizumab with carboplatin plus paclitaxel and bevacizumab): 19.5 months; PFS HR vs. placebo arm ([29]; with carboplatin plus paclitaxel and bevacizumab): 0.92; median OS [30]: Median OS: 12.3 months; median PFS [30]: Median PFS: 5.2 months; median OS ([30]; listed as atezolizumab): 12.3 months; median PFS ([30]; listed as atezolizumab): 5.2 months; OS (in words) [31]: OS benefit

For Durvalumab: PD-L1 blocking antibody, which ORR ([32]; PD-L1 negative) is on record?
The ORR was 0% (PD-L1 negative).

What about the ORR ([32]; PD-L1 negative, listed as durvalumab) of the same compound?
The ORR was “none”.

What about the ORR ([32]; PD-L1 positive) of the same compound?
Its ORR is “patients), 46.4%”.

And the ORR ([32]; PD-L1 positive, listed as durvalumab)?
The ORR was 46.4%.

And the ORR ([32]; all patients)?
Its ORR is “ORR: 31% (all”.

And the ORR ([32]; all patients, listed as durvalumab)?
Its ORR is 31%.

Which “CR, patients” value ([33]; in vivo) does the source give for Avelumab: PD-L1 blocking antibody here?
Its value is 8/88.

What about the “ORR, responders/patients” value ([33]; in vivo) of the same compound?
The value was 28/88.

And the ORR ([33]; regardless of PD-L1)?
The ORR was “ORR: 31.8%”.

And the “PFS HR vs. chemotherapy alone” value ([34]; avelumab in combination with chemotherapy)?
The value was 1.14.

And the “median PFS” value ([34]; avelumab only group)?
The value was 16.8 months.

And the “median PFS” value ([34]; combination with chemotherapy)?
The value was 18.1 months.

And the “PFS HR vs. chemotherapy alone” value ([34]; single agent avelumab maintenance)?
Its value is 1.43.

And the ORR ([35]; PD-L1+)?
The ORR was 55.2%.

What about the “median PFS” value ([35]; PD-L1+) of the same compound?
The value was 13.8 months.

And the “median PFS” value ([35]; overall population)?
The value was “median PFS: 13.8”.

And the “24-month OS” value [36]?
The value was “OS: 20.1%”.

And the CR [36]?
Its CR is 4.1%.

What about the ORR [36] of the same compound?
Its ORR is “ORR: 16.5%; CR:”.

And the PR [36]?
Its PR is 12.4%.

And the “median DoR” value [36]?
The value was “Median DoR: 20.5 months”.

What about the “median OS” value [36] of the same compound?
The value was “Median OS: 7.0 months”.

What about the “median PFS” value [36] of the same compound?
Its value is “Median PFS: 1.6 months”.

For `NC(=O)c1cccc2cn(-c3ccc([C@@H]4CCCNC4)cc3)nc12` [niraparib], which “OS HR” value ([37]; HRP) is on record?
Its value is 0.93.

What about the “OS HR” value ([37]; overall) of the same compound?
Its value is 1.01.

For “Dostarlimab-gxly: anti-PD-1 checkpoint inhibitor”, which “median PFS” value [38] is on record?
Its value is “Median PFS: 30.3 months”.
